Test results taken from ChEMBL document CHEMBL1140184, “Synthesis and structure-activity relationship studies of highly potent novel oxazolidinone antibacterials” (2008).
In brackets after ≈: the same amount, converted by molar mass.

Tests used:
Format in all cases: functional
[1] = system: Haemophilus influenzae; assay: Antibacterial activity against Haemophilus influenzae IID983 by agar dilution method
[2] = system: Staphylococcus aureus; assay: Antibacterial activity against methicillin-resistant Staphylococcus aureus TK7 by agar dilution method
[3] = system: Streptococcus pneumoniae; assay: Antibacterial activity against penicillin-susceptible Streptococcus pneumoniae IID553 by agar dilution method
[4] = system: Enterococcus faecium; assay: Antibacterial activity against vancomycin-resistant Enterococcus faecium A2280 by agar dilution method
[5] = system: Staphylococcus aureus; assay: Antibacterial activity against methicillin-sensitive Staphylococcus aureus Smith by agar dilution method
[6] = system: Streptococcus pneumoniae; assay: Antibacterial activity against penicillin-resistant Streptococcus pneumoniae PR44 by agar dilution method

Row | SMILES | MIC [1] | MIC [2] | MIC [3] | MIC [4] | MIC [5] | MIC [6]
1 | N#C[C@]1(c2ccc(-c3ccc(N4C[C@H](Cn5ccnn5)OC4=O)cc3)cn2)[C@@H]2C[S+]([O-])C[C@@H]21 (stereo partly specified) | 8 µg/mL (≈ 17.4 µM) | 0.125 µg/mL (≈ 0.271 µM) | 0.125 µg/mL (≈ 0.271 µM) | 0.25 µg/mL (≈ 0.543 µM) | 0.125 µg/mL (≈ 0.271 µM) | 0.125 µg/mL (≈ 0.271 µM)
2 | N#CN1C[C@@H]2[C@H](C1)[C@@]2(C#N)c1ccc(-c2ccc(N3C[C@H](Cn4ccnn4)OC3=O)cc2F)cn1 | 2 µg/mL (≈ 4.25 µM) | 0.06 µg/mL (≈ 0.128 µM) | 0.06 µg/mL (≈ 0.128 µM) | 0.06 µg/mL (≈ 0.128 µM) | 0.06 µg/mL (≈ 0.128 µM) | 0.06 µg/mL (≈ 0.128 µM)
3 | N#C[C@]1(c2ccc(-c3ccc(N4C[C@H](Cn5ccnn5)OC4=O)cc3F)cn2)[C@@H]2CSC[C@@H]21 | > 2 µg/mL | 0.06 µg/mL (≈ 0.13 µM) | 0.125 µg/mL (≈ 0.27 µM) | 0.25 µg/mL (≈ 0.541 µM) | 0.06 µg/mL (≈ 0.13 µM) | 0.06 µg/mL (≈ 0.13 µM)
4 | N#C[C@]1(c2ccc(-c3c(F)cc(N4C[C@H](Cn5ccnn5)OC4=O)cc3F)cn2)[C@@H]2COC[C@@H]21 | 4 µg/mL (≈ 8.61 µM) | 0.06 µg/mL (≈ 0.129 µM) | 0.25 µg/mL (≈ 0.538 µM) | 0.25 µg/mL (≈ 0.538 µM) | 0.06 µg/mL (≈ 0.129 µM) | 0.125 µg/mL (≈ 0.269 µM)
5 | N#C[C@]1(c2ccc(-c3ccc(N4C[C@H](Cn5ccnn5)OC4=O)cc3F)cn2)[C@@H]2CN(C(=O)CO)C[C@@H]21 | 4 µg/mL (≈ 7.94 µM) | 0.06 µg/mL (≈ 0.119 µM) | 0.06 µg/mL (≈ 0.119 µM) | 0.125 µg/mL (≈ 0.248 µM) | 0.06 µg/mL (≈ 0.119 µM) | 0.06 µg/mL (≈ 0.119 µM)
6 | N#C[C@]1(c2ccc(-c3ccc(N4C[C@H](COc5ccon5)OC4=O)cc3F)cn2)[C@@H]2CNC[C@@H]21 | 4 µg/mL (≈ 8.67 µM) | 0.06 µg/mL (≈ 0.13 µM) | 0.125 µg/mL (≈ 0.271 µM) | 0.125 µg/mL (≈ 0.271 µM) | 0.06 µg/mL (≈ 0.13 µM) | 0.06 µg/mL (≈ 0.13 µM)
7 | CC(=S)NC[C@H]1CN(c2ccc(-c3ccc([C@@]4(C#N)[C@@H]5CNC[C@@H]54)nc3)c(F)c2)C(=O)O1 | 2 µg/mL (≈ 4.43 µM) | 0.03 µg/mL (≈ 0.0664 µM) | 0.06 µg/mL (≈ 0.133 µM) | 0.06 µg/mL (≈ 0.133 µM) | 0.06 µg/mL (≈ 0.133 µM) | 0.03 µg/mL (≈ 0.0664 µM)
8 | COC(=O)NC[C@H]1CN(c2ccc(-c3ccc([C@@]4(C#N)[C@@H]5CNC[C@@H]54)nc3)c(F)c2)C(=O)O1 | 4 µg/mL (≈ 8.86 µM) | 0.125 µg/mL (≈ 0.277 µM) | 0.125 µg/mL (≈ 0.277 µM) | 0.125 µg/mL (≈ 0.277 µM) | 0.125 µg/mL (≈ 0.277 µM) | 0.125 µg/mL (≈ 0.277 µM)
9 | NC[C@]1(c2ccc(-c3ccc(N4C[C@H](Cn5ccnn5)OC4=O)cc3F)cn2)[C@@H]2CNC[C@@H]21 | 128 µg/mL (≈ 285 µM) | 4 µg/mL (≈ 8.9 µM) | 4 µg/mL (≈ 8.9 µM) | 16 µg/mL (≈ 35.6 µM) | 4 µg/mL (≈ 8.9 µM) | 8 µg/mL (≈ 17.8 µM)
10 | N#C[C@]1(c2ccc(-c3ccc(N4C[C@H](Cn5ccnn5)OC4=O)cc3)cn2)[C@@H]2COC[C@@H]21 | 4 µg/mL (≈ 9.34 µM) | 0.06 µg/mL (≈ 0.14 µM) | 0.125 µg/mL (≈ 0.292 µM) | 0.25 µg/mL (≈ 0.583 µM) | 0.06 µg/mL (≈ 0.14 µM) | 0.125 µg/mL (≈ 0.292 µM)
11 | CN1C[C@@H]2[C@H](C1)[C@@]2(C#N)c1ccc(-c2ccc(N3C[C@H](Cn4ccnn4)OC3=O)cc2F)cn1 | 4 µg/mL (≈ 8.71 µM) | 0.06 µg/mL (≈ 0.131 µM) | 0.06 µg/mL (≈ 0.131 µM) | 0.25 µg/mL (≈ 0.544 µM) | 0.06 µg/mL (≈ 0.131 µM) | 0.06 µg/mL (≈ 0.131 µM)
12 | N#C[C@]1(c2ccc(-c3ccc(N4C[C@H](Cn5ccnn5)OC4=O)cc3F)cn2)[C@@H]2C[S+]([O-])C[C@@H]21 (stereo partly specified) | 4 µg/mL (≈ 8.36 µM) | 0.06 µg/mL (≈ 0.125 µM) | 0.06 µg/mL (≈ 0.125 µM) | 0.125 µg/mL (≈ 0.261 µM) | 0.06 µg/mL (≈ 0.125 µM) | 0.06 µg/mL (≈ 0.125 µM)
13 | N#C[C@]1(c2ccc(-c3ccc(N4C[C@H](Cn5ccnn5)OC4=O)cc3)cn2)[C@@H]2CSC[C@@H]21 | 8 µg/mL (≈ 18 µM) | 0.06 µg/mL (≈ 0.135 µM) | 0.125 µg/mL (≈ 0.281 µM) | 0.25 µg/mL (≈ 0.562 µM) | 0.06 µg/mL (≈ 0.135 µM) | 0.06 µg/mL (≈ 0.135 µM)
14 | N#C[C@]1(c2ccc(-c3c(F)cc(N4C[C@H](Cn5ccnn5)OC4=O)cc3F)cn2)[C@@H]2CNC[C@@H]21 | 4 µg/mL (≈ 8.63 µM) | 0.125 µg/mL (≈ 0.27 µM) | 0.125 µg/mL (≈ 0.27 µM) | 0.25 µg/mL (≈ 0.539 µM) | 0.125 µg/mL (≈ 0.27 µM) | 0.125 µg/mL (≈ 0.27 µM)
15 | N#C[C@]1(c2ccc(-c3ccc(N4C[C@H](Cn5ccnn5)OC4=O)cc3F)cc2)[C@@H]2CNC[C@@H]21 | 4 µg/mL (≈ 9 µM) | 0.06 µg/mL (≈ 0.135 µM) | 0.125 µg/mL (≈ 0.281 µM) | 0.25 µg/mL (≈ 0.562 µM) | 0.125 µg/mL (≈ 0.281 µM) | 0.06 µg/mL (≈ 0.135 µM)
16 | N#C[C@]1(c2ccc(-c3ccc(N4C[C@H](Cn5ccnn5)OC4=O)cc3F)cn2)[C@@H]2COC[C@@H]21 | 2 µg/mL (≈ 4.48 µM) | 0.06 µg/mL (≈ 0.134 µM) | 0.06 µg/mL (≈ 0.134 µM) | 0.25 µg/mL (≈ 0.56 µM) | 0.06 µg/mL (≈ 0.134 µM) | 0.06 µg/mL (≈ 0.134 µM)
17 | N#C[C@]1(c2ccc(-c3ccc(N4C[C@H](Cn5ccnn5)OC4=O)cc3)cn2)[C@@H]2CS(=O)(=O)C[C@@H]21 | 4 µg/mL (≈ 8.39 µM) | 0.06 µg/mL (≈ 0.126 µM) | 0.06 µg/mL (≈ 0.126 µM) | 0.125 µg/mL (≈ 0.262 µM) | 0.06 µg/mL (≈ 0.126 µM) | 0.06 µg/mL (≈ 0.126 µM)
18 | CC(=O)NC[C@H]1CN(c2ccc(N3CCOCC3)c(F)c2)C(=O)O1 [LINEZOLID] | 16 µg/mL (≈ 47.4 µM) | 1 µg/mL (≈ 2.96 µM) | – | 2 µg/mL (≈ 5.93 µM) | 1 µg/mL (≈ 2.96 µM) | –
